Measured values: the supplement of paper PMC11061612

Tests used:
Experiment in all cases: combination Emax (second highest fraction inhibited in the dose matrix, 72 h); higher = more inhibition; extreme values may be limits of the assay
[1] = system: NCI-H2141 (Small Cell Lung Carcinoma)
Method in brief: (§1)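 Cell lines grown in DMEM/F12 or RPMI with 10% FBS were plated in 1536-well plates and held 24 hours at 37°C, 5% CO2 before 72 hours of exposure to two-drug dose matrices, with DMSO typically at 0.2%. CellTiter-Glo 2.0 luminescence gave viability, which was converted to inhibition. Vehicle wells were set to 0 and blank wells to 1. Combination Emax is the second-highest inhibition in the matrix, and Bliss excess is the observed combination effect minus the expected EA + EB − EA·EB, where EA and EB are the single-agent effects.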

NCI-H2591 (Mesothelioma) = system: NCI-H2591 (Mesothelioma)
Method in brief: as §1

[2] = system: A549 (Lung Adenocarcinoma)
Method in brief: as §1

U-2-OS (Osteosarcoma) = system: U-2-OS (Osteosarcoma)
Method in brief: as §1

GI-ME-N (Neuroblastoma) = system: GI-ME-N (Neuroblastoma)
Method in brief: as §1

[3] = system: TT2609-C02 (Thyroid Gland Carcinoma)
Method in brief: as §1

[4] = system: PANC-10-05 (Pancreatic Carcinoma)
Method in brief: as §1

ARH-77 (Non-Cancerous) = system: ARH-77 (Non-Cancerous)
Method in brief: as §1

8-MG-BA (Glioblastoma) = system: 8-MG-BA (Glioblastoma)
Method in brief: as §1

[5] = system: OS-RC-2 (Kidney Carcinoma)
Method in brief: as §1

[6] = system: JSC-1 (B-Cell Non-Hodgkin's Lymphoma)
Method in brief: as §1

[7] = system: SK-MES-1 (Squamous Cell Lung Carcinoma)
Method in brief: as §1

[8] = system: ONS-76 (Other Solid Carcinomas)
Method in brief: as §1

[9] = system: SK-MG-1 (Low Grade Glioma)
Method in brief: as §1

NY (Osteosarcoma) = system: NY (Osteosarcoma)
Method in brief: as §1

[10] = system: NCI-H1650 (Lung Adenocarcinoma)
Method in brief: as §1

[11] = system: NCI-H1666 (Lung Adenocarcinoma)
Method in brief: as §1

[12] = system: NCI-H64 (Small Cell Lung Carcinoma)
Method in brief: as §1

[13] = system: ECC10 (Gastric Carcinoma)
Method in brief: as §1

[14] = system: BICR22 (Oral Cavity Carcinoma)
Method in brief: as §1

Row | Compound | combination Emax [1] | combination Emax (NCI-H2591 (Mesothelioma)) | combination Emax [2] | combination Emax (U-2-OS (Osteosarcoma)) | combination Emax (GI-ME-N (Neuroblastoma)) | combination Emax [3] | combination Emax [4] | combination Emax (ARH-77 (Non-Cancerous)) | combination Emax (8-MG-BA (Glioblastoma)) | combination Emax [5] | combination Emax [6] | combination Emax [7] | combination Emax [8] | combination Emax [9] | combination Emax (NY (Osteosarcoma)) | combination Emax [10] | combination Emax [11] | combination Emax [12] | combination Emax [13] | combination Emax [14]
1 | CN(C)CCCOc1ccc(-c2ccc3ncc4c(c3c2)n(C2CCOCC2)c(=O)n4C)cn1 [AZD0156] + O=C(c1cc(Cc2n[nH]c(=O)c3ccccc23)ccc1F)N1CCN(C(=O)C2CC2)CC1 [Olaparib] (first compound max 3 µM, partner max 3 µM) | 0.192 | 0.135 | 0.374 | 0.201 | 0.193 | 0.152 | 0.343 | 0.63 | 0.4 | 0.269 | 0.582 | 0.407 | 0.235 | 0.319 | 0.338 | 0.226 | 0.269 | 0.145 | 0.299 | 0.135
2 | CN(C)CCCOc1ccc(-c2ccc3ncc4c(c3c2)n(C2CCOCC2)c(=O)n4C)cn1 [AZD0156] + C=CCn1c(=O)c2cnc(Nc3ccc(N4CCN(C)CC4)cc3)nc2n1-c1cccc(C(C)(C)O)n1 [AZD1775] (first compound max 1 µM, partner max 1 µM) | 0.558 | 0.191 | 0.317 | 0.734 | 0.321 | 0.334 | 0.361 | 0.944 | 0.74 | 0.326 | 0.868 | 0.555 | 0.675 | 0.525 | 0.555 | 0.385 | 0.314 | 0.832 | 0.783 | 0.516
3 | CCN(CCO)CCCOc1ccc2c(Nc3cc(CC(=O)Nc4cccc(F)c4)[nH]n3)ncnc2c1 [AZD2811] + C=CCn1c(=O)c2cnc(Nc3ccc(N4CCN(C)CC4)cc3)nc2n1-c1cccc(C(C)(C)O)n1 [AZD1775] (first compound max 1 µM, partner max 1 µM) | 0.502 | 0.194 | 0.599 | 0.628 | 0.29 | 0.361 | 0.354 | 0.95 | 0.744 | 0.305 | 0.809 | 0.537 | 0.607 | 0.455 | 0.527 | 0.346 | 0.327 | 0.813 | 0.898 | 0.468
4 | CC1(C)CCC(CN2CCN(c3ccc(C(=O)NS(=O)(=O)c4ccc(NCC5CCOCC5)c([N+](=O)[O-])c4)c(Oc4cnc5[nH]ccc5c4)c3)CC2)=C(c2ccc(Cl)cc2)C1 [Venetoclax] + C[C@@H](Nc1cc(F)cc(F)c1)c1cc(C(=O)N(C)C)cc2c(=O)cc(N3CCOCC3)oc12 [AZD8186] (first compound max 1 µM, 7x7, partner max 3 µM) | 0.361 | 0.118 | 0.471 | 0.139 | 0.165 | 0.162 | 0.244 | 0.724 | 0.133 | 0.375 | 0.0196 | 0.257 | 0.746 | 0.387 | 0.616 | 0.255 | 0.339 | 0.335 | 0.969 | 0.15
5 | COc1nnc2ccc(N3CCC(c4ccc(OCCN5CCN(C)C(=O)[C@H]5C)cc4)CC3)nn12 [AZD5153] + CCN(CCO)CCCOc1ccc2c(Nc3cc(CC(=O)Nc4cccc(F)c4)[nH]n3)ncnc2c1 [AZD2811] (first compound max 1 µM, 7x7, partner max 1 µM) | 0.297 | 0.429 | 0.834 | 0.405 | 0.341 | 0.492 | 0.554 | 0.82 | 0.74 | 0.304 | 0.775 | 0.507 | 0.56 | 0.566 | 0.517 | 0.415 | 0.432 | 0.609 | 0.884 | 0.463
6 | C[C@@H](c1ccc2nccn2c1)n1nnc2ncc(-c3cnn(C)c3)nc21 [Savolitinib] + Cc1c2c(nn1C)CSCc1cc(n(C)n1)CSc1cc(c3ccccc3c1)OCCCc1c(C(=O)O)n(C)c3c-2c(Cl)ccc13 [AZD5991] (first compound max 1 µM, 7x7, partner max 1 µM) | 0.234 | 0.216 | 0.22 | 0.18 | 0.245 | 0.156 | 0.153 | 0.245 | 0.595 | 0.19 | 1 | 0.228 | 0.153 | 0.124 | 0.442 | 0.132 | 0.178 | 0.0956 | 0.503 | 0.269
7 | Cn1cnc2c(F)c(Nc3ccc(Br)cc3Cl)c(C(=O)NOCCO)cc21 [Selumetinib] + CC(C)n1c(=O)n(C)c2cnc3cc(F)c(-c4ccc(OCCCN5CCCCC5)nc4)cc3c21 [AZD1390] (first compound max 10 µM, 7x7, partner max 0.3 µM) | 0.0858 | 0.199 | 0.761 | 0.577 | 0.178 | 0.663 | 0.402 | 0.318 | 0.116 | 0.158 | 0.584 | 0.464 | 0.713 | 0.185 | 0.181 | 0.132 | 0.529 | 0.105 | 0.202 | 0.334
8 | Cn1cnc2c(F)c(Nc3ccc(Br)cc3Cl)c(C(=O)NOCCO)cc21 [Selumetinib] + CCN(CCO)CCCOc1ccc2c(Nc3cc(CC(=O)Nc4cccc(F)c4)[nH]n3)ncnc2c1 [AZD2811] (first compound max 10 µM, 7x7, partner max 1 µM) | 0.167 | 0.29 | 0.807 | 0.661 | 0.213 | 0.622 | 0.464 | 0.369 | 0.286 | 0.225 | 0.682 | 0.511 | 0.728 | 0.288 | 0.247 | 0.213 | 0.506 | 0.516 | 0.841 | 0.538
9 | COc1cccc(OCCCN)c1-c1cc(Nc2cnc(C#N)cn2)n[nH]1 [Prexasertib] + C[C@@H]1COCCN1C2=NC(=NC(=C2)C3(CC3)[S@](=N)(=O)C)C4=C5C=CNC5=NC=C4 [AZD6738] (first compound max 1 µM, 7x7, partner max 10 µM) | 0.573 | 0.519 | 0.864 | 0.894 | 0.563 | 0.263 | 0.46 | 1 | 0.926 | 0.483 | 0.995 | 0.842 | 0.903 | 0.802 | 0.637 | 0.519 | 0.463 | 0.835 | 0.712 | 0.789
10 | Cc1c2c(nn1C)CSCc1cc(n(C)n1)CSc1cc(c3ccccc3c1)OCCCc1c(C(=O)O)n(C)c3c-2c(Cl)ccc13 [AZD5991] + Cc1cc2ncnn2cc1Nc1ncc2c(n1)n(C1CCOCC1)c(=O)n2C [AZD7648] (first compound max 1 µM, 7x7, partner max 10 µM) | 0.307 | 0.305 | 0.461 | 0.261 | 0.228 | 0.205 | 0.404 | 0.835 | 0.646 | 0.286 | 1 | 0.223 | 0.315 | 0.374 | 0.579 | 0.168 | 0.246 | 0.341 | 0.669 | 0.499
11 | COc1cc2ncnc(Nc3ccc(F)c(Cl)c3)c2cc1OCCCN1CCOCC1 [Gefitinib] + CC(C)n1c(=O)n(C)c2cnc3cc(F)c(-c4ccc(OCCCN5CCCCC5)nc4)cc3c21 [AZD1390] (first compound max 10 µM, 7x7, partner max 0.3 µM) | 0.0717 | 0.0235 | 0.435 | 0.0294 | 0.0541 | 0.0663 | 0.202 | 0.272 | 0.268 | 0.145 | 0.249 | 0.408 | 0.11 | 0.072 | 0.239 | 0.236 | 0.484 | 0.152 | 0.12 | 0.272
12 | C=CCn1c(=O)c2cnc(Nc3ccc(N4CCN(C)CC4)cc3)nc2n1-c1cccc(C(C)(C)O)n1 [AZD1775] + C1CN(CCC1(C(=O)N[C@@H](CCO)C2=CC=C(C=C2)Cl)N)C3=NC=NC4=C3C=CN4 [Capivasertib] (first compound max 3 µM, partner max 3 µM) | 0.641 | 0.178 | 0.664 | 0.665 | 0.451 | 0.466 | 0.594 | 0.983 | 0.975 | 0.406 | 0.911 | 0.781 | 0.76 | 0.591 | 0.737 | 0.61 | 0.55 | 0.92 | 0.746 | 0.594
13 | NC1(C(=O)N[C@@H](CCO)c2ccc(Cl)cc2)CCN(c2ncnc3[nH]ccc23)CC1 [Capivasertib] + COc1nnc2ccc(N3CCC(c4ccc(OCCN5CCN(C)C(=O)[C@H]5C)cc4)CC3)nn12 [AZD5153] (first compound max 10 µM, 7x7, partner max 1 µM) | 0.377 | 0.334 | 0.823 | 0.354 | 0.343 | 0.461 | 0.669 | 0.885 | 0.797 | 0.433 | 0.793 | 0.583 | 0.627 | 0.721 | 0.346 | 0.442 | 0.385 | 0.548 | 0.981 | 0.631
